Data from publication PMC10177262, “A Novel CD206 Targeting Peptide Inhibits Bleomycin-Induced Pulmonary Fibrosis in Mice” (Cells, 2023).
“Also recorded” adds a separate entry of the source. No end group written: not given here.

Tests used:
[1] = tested on: IMR9 human fetal lung fibroblast cell line; assay: Cytotoxicity in lung fibroblasts IMR9 / IMR91; format: cell-based; conditions: 1μM - 100μM; three independent experiments in triplicate
Experimental: (§1) The RP-832c (RWKFGGFKWR) peptide was synthesized by PolyPeptide Laboratories, San Diego, CA, USA. BMDM cells were isolated and polarized as described previously. The cell viability of RP-832c-treated macrophages was determined using the live/dead viability assay as previously described. Human fetal lung fibroblast cell lines MRC5, IMR90, and IMR9 were purchased from the American Type Culture Collection (ATCC, Manassas, VA, USA) and were cultured according to ATCC protocols.
(§2) BMDM cells were isolated as described previously. Briefly, murine monocyte precursor cells were obtained by flushing out the bone marrow from the femur bones of 6–8-week-old healthy C57BL/6 mice. These precursor cells were then differentiated into M1 macrophages using 20 ng/mL of M-CSF and 20 ng/mL of IFN-γ and into M2 macrophages using 20 ng/mL of M-CSF and 20 ng/mL of IL-4 [29]. […]
(§3) Cell viability dose-response curves were determined using the Live/Dead Viability/Cytotoxicity Kit (Thermo Fisher Scientific, Waltham, MA, USA, Cat# L3224) using the manufacturer’s protocol. […] The images were taken and analyzed as described in the immunofluorescence assay section below. A total of 200 cells were counted manually from three different random 20× regions across three technical replicates, and the percentage of alive cells was calculated using GraphPad Prism version 8.0. […]

[2] = tested on: M2-polarized bone marrow-derived macrophages (BMDM); format: cell-based, murine (C57BL/6 mice); conditions: 48 h
Experimental: (§4) BMDM cells were isolated as described previously. Briefly, murine monocyte precursor cells were obtained by flushing out the bone marrow from the femur bones of 6–8-week-old healthy C57BL/6 mice. These precursor cells were then differentiated into M1 macrophages using 20 ng/mL of M-CSF and 20 ng/mL of IFN-γ and into M2 macrophages using 20 ng/mL of M-CSF and 20 ng/mL of IL-4 [29]. Human fetal lung fibroblast cell lines MRC5, IMR90, and IMR9 were purchased from the American Type Culture Collection (ATCC, Manassas, VA, USA) and were cultured according to ATCC protocols.
(§5) Cell viability dose-response curves were determined using the Live/Dead Viability/Cytotoxicity Kit (Thermo Fisher Scientific, Waltham, MA, USA, Cat# L3224) using the manufacturer’s protocol. Macrophages were seeded onto glass-bottom 96-well plates and polarized into M1 or M2 populations. Cells were treated with different concentrations of RP-832c for 48 h. After drug treatment, a 100 μL mixture of 2 μM calcein-AM and 4 μM ethidium homodimer was added and incubated for 1 h. The images were taken and analyzed as described in the immunofluorescence assay section below. A total of 200 cells were counted manually from three different random 20× regions across three technical replicates, and the percentage of alive cells was calculated using GraphPad Prism version 8.0. […]

[3] = tested on: M1-polarized bone marrow-derived macrophages (BMDM); assay: Live/Dead cell viability assay, M1 macrophages; format: cell-based, murine (C57BL/6 mice); conditions: 48 h, 0–100 μM
Experimental: as §4, §5

[4] = tested on: MRC5 human fetal lung fibroblast cell line; assay: Cytotoxicity in lung fibroblasts MRC5; format: cell-based
Experimental: as §1, §2, §3

[5] = Toxicity study: body and organ weights, blood count, blood chemistry
[6] = matrix and method not stated; no reference given; cited from earlier work
Source text: It is evident from various studies that macrophages are indispensable in tissue repair and subsequent fibrotic changes. […] M1 macrophages initiate host defense responses against pathogens by generating reactive nitric oxide (NO) via inducible nitric oxide synthase (iNOS), and by releasing proinflammatory cytokines and chemokines such as IL-1β, IL-12, IL-23, CCL2, and TNF-α. Meanwhile, M2 macrophages contribute to the pathogenesis of fibrosis ...

CD206 in lung tissue = assay: IHC staining of CD206 in lungs of BLM-treated mice; format: in vivo, mouse; conditions: n=3 mice; vs naïve
Experimental: At the end of the study, the mice were sacrificed using CO2 followed by cervical dislocation (according to IACUC guidelines), and the lungs were collected and fixed in 10% formalin. After 48 h of fixation, the lungs were processed into tissue sections. The tissue sections were stained with both Hematoxylin/Eosin (H&E) (Sigma Aldrich, Burlington, MA, USA) and Masson Trichrome (Abcam, Waltham, MA, USA). Immunostaining was performed with the anti-CD206 (AF2535, 5 ug/mL, R&D Biosciences), TGF-β1 (MAB1835, 10 ug/mL, R&D Biosciences), and α-SMA (MAB1420, 10 ug/mL, R&D Biosciences, Minneapolis, MN, USA) antibodies as previously described. All slides were scanned using a Leica Aperio SC2 scanner and blindly evaluated by two independent pathologists. A total of 10 representative fields of 20× IHC images per tissue section were individually analyzed for the total number of cells/area using a confocal microscope (Olympus, New York, NY, USA). All quantitative data were normalized to appropriate control images.
We first sought to perform in silico validation of CD206 expression at various time points in both bleomycin-treated rat (GSE48455) and mouse models (GSE40151). […] Thus, the BLM model appears to be an appropriate model to determine the role of CD206 in lung fibrosis. […]
by different concentrations (0μM - 100μM) of RP-832c. […]

[7] = target: T1, CD206 (macrophage mannose receptor) (UniProt P22897); assay: SPR
T1 chain: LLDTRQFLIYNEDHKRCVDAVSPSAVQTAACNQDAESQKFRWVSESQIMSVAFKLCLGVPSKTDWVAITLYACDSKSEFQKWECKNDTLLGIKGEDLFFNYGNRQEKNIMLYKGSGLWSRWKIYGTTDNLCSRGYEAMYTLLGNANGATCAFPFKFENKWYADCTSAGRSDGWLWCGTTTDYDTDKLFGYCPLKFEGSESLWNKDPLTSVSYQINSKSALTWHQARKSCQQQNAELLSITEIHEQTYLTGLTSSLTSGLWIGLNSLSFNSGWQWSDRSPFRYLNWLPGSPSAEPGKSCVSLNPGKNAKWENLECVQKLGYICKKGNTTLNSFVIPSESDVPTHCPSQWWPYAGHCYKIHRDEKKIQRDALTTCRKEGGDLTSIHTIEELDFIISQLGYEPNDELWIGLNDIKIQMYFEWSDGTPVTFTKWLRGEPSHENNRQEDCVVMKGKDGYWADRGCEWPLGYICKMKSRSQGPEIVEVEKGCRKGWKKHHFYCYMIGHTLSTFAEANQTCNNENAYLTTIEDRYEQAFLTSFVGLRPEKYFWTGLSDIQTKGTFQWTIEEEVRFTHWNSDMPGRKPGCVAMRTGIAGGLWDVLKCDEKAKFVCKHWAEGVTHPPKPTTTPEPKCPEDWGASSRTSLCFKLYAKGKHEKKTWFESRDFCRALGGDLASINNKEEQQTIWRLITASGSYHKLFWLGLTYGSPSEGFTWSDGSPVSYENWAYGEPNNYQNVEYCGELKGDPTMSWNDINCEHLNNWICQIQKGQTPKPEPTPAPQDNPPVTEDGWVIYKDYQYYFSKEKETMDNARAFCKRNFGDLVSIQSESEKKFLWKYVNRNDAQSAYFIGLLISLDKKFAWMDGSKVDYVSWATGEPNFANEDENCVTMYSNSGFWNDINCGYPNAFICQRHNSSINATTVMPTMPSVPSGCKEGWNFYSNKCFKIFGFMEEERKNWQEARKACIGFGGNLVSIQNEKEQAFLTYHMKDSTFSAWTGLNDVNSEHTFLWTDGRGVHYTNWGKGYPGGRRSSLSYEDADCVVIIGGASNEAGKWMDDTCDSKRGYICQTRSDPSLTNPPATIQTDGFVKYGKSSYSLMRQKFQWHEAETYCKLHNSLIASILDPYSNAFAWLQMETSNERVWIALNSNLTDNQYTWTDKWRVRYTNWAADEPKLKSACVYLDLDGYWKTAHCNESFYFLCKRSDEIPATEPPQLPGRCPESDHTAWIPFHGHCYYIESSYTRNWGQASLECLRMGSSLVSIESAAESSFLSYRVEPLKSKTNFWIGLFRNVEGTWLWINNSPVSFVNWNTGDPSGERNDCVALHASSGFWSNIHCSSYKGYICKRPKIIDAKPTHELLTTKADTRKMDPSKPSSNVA

For RWKFGGFKWR [RP-832c], the “cytotoxicity against IMR9 (IMR91) fibroblasts” value [1] was “did not show cytotoxicity; also recorded: lacking any cytotoxicity”, the IC50 [2] was roughly 6 µM and the “cytotoxicity in M1 macrophages” value [3] was “only minimal cytotoxicity”. The “cytotoxicity against MRC5 fibroblasts” value ([4]; 1μM - 100μM, three independent experiments in triplicate) was “did not show cytotoxicity; also recorded: lacking any cytotoxicity”, the “proliferation of fibroblast cell lines” value ([4]; multiple fibroblast cell lines cultured in vitro) was “did not observe any significant effect on the proliferation of multiple fibroblast cell lines; also recorded: did not observe direct inhibitory effects on the fibroblast cell lines” and the “AST, Mean Difference” value ([5]; 50 mg/kg vs saline, p 0.1237) was −48.8. The “Phosphorus, Mean Difference” value ([5]; 50 mg/kg vs saline, p 0.2623) was -1.1 mg/dL, the “BUN, Mean Difference” value ([5]; 50 mg/kg vs saline, p 0.3087) was 1.6 mg/dL and the “Albumin, Mean Difference” value ([5]; 50 mg/kg vs saline, p 0.3982) was 0.2 g/dL. The “Globulin, Mean Difference” value ([5]; 50 mg/kg vs saline, p 0.4413) was 0.1 g/dL, the “Total Protein, Mean Difference” value ([5]; 50 mg/kg vs saline, p 0.5797) was 0.3 g/dL and the “Creatinine, Mean Difference” value ([5]; 50 mg/kg vs saline, p not given) was 0.0 mg/dL. For the same molecule, the body weight ([5]; 50mg/kg, CD1 mice, vs vehicle) was “did not have any significant effect on body weight”, the Creatinine ([5]; 50 mg/kg, n = 10, saline n = 5: 0.2 ± 0) was 0.2 ± 0 mg/dL and the Globulin ([5]; 50 mg/kg, n = 10, saline n = 5: 2.6 ± 0.5) was 2.7 ± 0.2 g/dL. The Albumin ([5]; 50 mg/kg, n = 10, saline n = 5: 2.9 ± 0.3) was 3.1 ± 0.3 g/dL, the “Total Protein” value ([5]; 50 mg/kg, n = 10, saline n = 5: 5.6 ± 0.8) was 5.9 ± 0.5 g/dL and the Phosphorus ([5]; 50 mg/kg, n = 10, saline n = 5: 8.8 ± 2.4) was 7.7 ± 0.5 mg/dL. It also gave a BUN ([5]; 50 mg/kg, n = 10, saline n = 5: 22.4 ± 3.4) of 24.0 ± 4.3 mg/dL, an ALT ([5]; 50 mg/kg, n = 10, saline n = 5: 35.8 ± 18.9) of 27.2 ± 10 U/L and an AST ([5]; 50 mg/kg, n = 10, saline n = 5: 140.0 ± 75.5) of 91.2 ± 21.7 U/L. The “body weight, organ weights, complete blood count and blood chemistry” value ([5]; 50 mg/kg, vs vehicle) was “no apparent toxicities observed; also recorded: No significant differences were observed”, the “complete blood cell count” value ([5]; 50 mg/kg, vs vehicle) was “does not significantly affect the complete blood cell count” and the organ weights ([5]; 50 mg/kg, vs vehicle) was “lacks any significant”. The “half-life compared to RP-182” value [6] was “increased half-life compared to RP-182” and the “stability compared to RP-182” value [6] was “enhanced stability”.

For bleomycin, the “CD206 expression in lungs of BLM-treated mice (IHC)” value (CD206 in lung tissue) was “upregulated”.

Work on RWKFGGFKWR [RP-832c] yielded a Kd [7] of roughly 3.5 µM.
